Reference: PMC10259803 (PLOS Pathogens, 2023)

What was measured:
[1] = test system: D39x; assay: ex vivo recombination frequency with mouse lung homogenate, D39x; assay type: cell-based, Streptococcus pneumoniae; details: for ex vivo recombination frequency with homogenized lungs of mice treated in vivo: poly (I:C) 50 μL of 1 mg/mL IN daily 4 days, AEBSF 125 μg IN daily 3 days along with poly (I:C), 0 mM AEBSF ex vivo
Procedure: To determine the impact of proteases from the lungs of mice on recombination frequency, a similar experimental setup as the in vitro recombination frequency was performed. […] During culture incubation, the lungs of 10-week-old female Balb/cJ mice (N = 7) were harvested and homogenized in 600 μL PBS. Lung homogenate was incubated with either water or AEBSF for 30 minutes, room temperature. 60 μL of lung homogenate-AEBSF mixture was transferred to a new tube. Addition of CSP1, culture, and gDNA and transformation was performed in the same manner as the in vitro recombination frequency. The final concentration of CSP was 3 μg/mL and gDNA was 2 μg/mL. The final concentration of AEBSF was 0mM, 1 mM, or 2mM. The lung from each mouse was divided into six transformations: D39x with lungs incubated with 0mM, 1 mM, or 2mM AEBSF and D39x comC^- with lungs incubated with 0mM, 1 mM, or 2mM AEBSF. As a control, the same culture of D39x and D39x comC^- were transformed with gDNA and CSP1 incubated with AEBSF in PBS. Recombination frequency of the transformation with CSP1 incubated with 1 mM and with 2 mM AEBSF were compared to that incubated with 0 mM AEBSF using Kruskal-Wallis one-way ANOVA in Graphpad 6.
Lungs were harvested and homogenized in 600 μL PBS. The homogenates from all lungs were subjected to the ex vivo protocol described above and the recombination frequency of D39x and D39x comC^- subjected to lungs incubated with 0mM, 1 mM, or 2mM AEBSF and CSP1 was determined.

[2] = test system: TIGR4; assay: in vitro recombination frequency, TIGR4; assay type: cell-based, Streptococcus pneumoniae; details: CSP2; PPT or HAT; 0.1 mM AEBSF
Procedure: During culture incubation, porcine pancreatic trypsin (PPT; Sigma #T4799) was reconstituted in Hank’s balanced salt solution (Gibco) and incubated with either water or 4-(2-Aminoethyl) benzenesulfonyl fluoride hydrochloride (AEBSF; Cayman #14321) in a total volume of 50μL 30mM Tris, pH 8.5 and incubated for 15 minutes, room temperature. CSP1 or CSP2 was added, followed by incubation for 30 minutes, room temperature. When the culture reached OD620~0.08, 1 mL of culture was transferred to the PPT-AEBSF-CSP mixture and 2 μg of D39 Tn-seq library gDNA (D39 strains) or 2 μg of TIGR4 Tn-seq library gDNA (TIGR4 strains) was added. […] Upon addition of the culture, the final concentration of PPT ranged from 0–10 μg/mL, AEBSF was 0.1 mM, CSP was 3 μg/mL, and gDNA was 2 μg/mL. The transformation was incubated for 3 hours at 37°C, 5% CO2, followed by serial dilution and plating on two TSA blood plates and two TSA blood plates supplemented with 200 μg/mL spectinomycin. To observe low-frequency recombination events, 200 μL of the transformation was also spread plated on two TSA blood plates supplemented with 200 μg/mL spectinomycin. For transformations with HAT incubated CSP, HAT (Bio-techne R&D #2695-SE-010) was reconstituted in 25mM Tris, 150mM NaCl, pH 7.5. All incubation times and final concentrations were the same as for PPT; however, the volumes were 1/10th as that for PPT. […]

[3] = test system: S. pneumoniae D39; assay: in vivo recombination frequency, poly (I:C) / AEBSF treated mice; details: Balb/cJ mice; poly (I:C) 50 μL of 1 mg/mL IN daily 4 days vs vehicle; AEBSF 125 μg IN prior to poly (I:C) vs poly (I:C) without inhibitor; 20 h after challenge
[4] = test system: DLA3; assay: Luminescence assay, DLA3 (PssbB-luc competence reporter); details: CSP1; 0.1 mM AEBSF
Procedure: DLA3 was inoculated in C+Y at OD620~0.03. Either PPT or HAT was incubated with water or AEBSF for 15 minutes, room temperature, followed by incubation with CSP1 for thirty minutes in a total volume of 5 μL 30mM Tris, pH 8.5. When the culture reached OD620~0.08, cells were pelleted at 6,000xg, 5 min and resuspended in fresh C+Y. 100 μL of the culture was added to the Trypsin-AEBSF-CSP mixture, followed by transfer to a white-walled, clear-bottom 96-well plate and addition of 5 μL of 10 mg/mL luciferin (Sigma #L6882). Luminescence and OD620 measurements were taken every 30 minutes in a Biotek Cytation 3.

[5] = test system: DLA3; assay: Growth (OD620) of DLA3; details: DLA3 with CSP1 incubated with trypsin with and without AEBSF (S1 Fig)
Procedure: A similar protocol as the in vitro recombination frequency was followed. DLA3 was inoculated in C+Y at OD620~0.03. Either PPT or HAT was incubated with water or AEBSF for 15 minutes, room temperature, followed by incubation with CSP1 for thirty minutes in a total volume of 5 μL 30mM Tris, pH 8.5. When the culture reached OD620~0.08, cells were pelleted at 6,000xg, 5 min and resuspended in fresh C+Y. 100 μL of the culture was added to the Trypsin-AEBSF-CSP mixture, followed by transfer to a white-walled, clear-bottom 96-well plate and addition of 5 μL of 10 mg/mL luciferin (Sigma #L6882). Luminescence and OD620 measurements were taken every 30 minutes in a Biotek Cytation 3. Increasing concentrations of protease within each group (0 mM AEBSF or 0.1 mM AEBSF) were compared using two-way ANOVA in Graphpad 6.
Absorbance at OD620 of DLA3 grown in the presence of CSP1 incubated with increasing concentrations of trypsin with and without inhibitor AEBSF. Incubation of CSP1 with PPT (A) without AEBSF or (B) with AEBSF. Incubation of CSP1 with HAT (C) without AEBSF or (D) with AEBSF. Experiment was repeated in triplicate. The mean value of OD620 of each 30-minute timepoint is reported; error bars are SEM.

[6] = test system: D39x comC^-; assay: in vitro recombination frequency, D39x comC^-; assay type: cell-based, Streptococcus pneumoniae; details: for HAT concentration to reduce the recombination frequency to below 5% of 0 trypsin: CSP incubated with HAT 30 min; for HAT concentration to reduce the recombination frequency to below 5% of 0 trypsin / PPT concentration to reduce the recombination frequency to below 5% of 0 trypsin: room temperature; for PPT concentration to reduce the recombination frequency to below 5% of 0 trypsin: CSP incubated with PPT 30 min; for reduction of recombination frequency upon incubation of modified CSP with trypsin-like proteases: both PPT and HAT, compared with unmodified CSP1
Procedure: During culture incubation, porcine pancreatic trypsin (PPT; Sigma #T4799) was reconstituted in Hank’s balanced salt solution (Gibco) and incubated with either water or 4-(2-Aminoethyl) benzenesulfonyl fluoride hydrochloride (AEBSF; Cayman #14321) in a total volume of 50μL 30mM Tris, pH 8.5 and incubated for 15 minutes, room temperature. CSP1 or CSP2 was added, followed by incubation for 30 minutes, room temperature. When the culture reached OD620~0.08, 1 mL of culture was transferred to the PPT-AEBSF-CSP mixture and 2 μg of D39 Tn-seq library gDNA (D39 strains) or 2 μg of TIGR4 Tn-seq library gDNA (TIGR4 strains) was added. […] Upon addition of the culture, the final concentration of PPT ranged from 0–10 μg/mL, AEBSF was 0.1 mM, CSP was 3 μg/mL, and gDNA was 2 μg/mL. The transformation was incubated for 3 hours at 37°C, 5% CO2, followed by serial dilution and plating on two TSA blood plates and two TSA blood plates supplemented with 200 μg/mL spectinomycin. To observe low-frequency recombination events, 200 μL of the transformation was also spread plated on two TSA blood plates supplemented with 200 μg/mL spectinomycin. For transformations with HAT incubated CSP, HAT (Bio-techne R&D #2695-SE-010) was reconstituted in 25mM Tris, 150mM NaCl, pH 7.5. All incubation times and final concentrations were the same as for PPT; however, the volumes were 1/10th as that for PPT. For both PPT and HAT, the experiment was repeated at least three times.

[7] = test system: serine proteases in mouse lung homogenates and sera; assay: Protease levels (fluorescence of substrate BOC); assay type: biochemical; details: for Protease levels in lungs and sera of treated mice: poly (I:C) vs control mice (lungs and sera), AEBSF prior to poly (I:C) vs poly (I:C) alone (lungs)
Procedure: For ex vivo experiments, the protease levels were measured from the same lung homogenate used in the ex vivo recombination frequency experiment, adapting the protocol from the HAT manufacturer (Bio-techne R&D). After the lungs were incubated with either water or AEBSF, 50 μL of lung homogenate mixture was transferred to a black, 96-well plate. 50 μL of substrate t-Butyloxycarbonyl Phe-Ser-Arg 7-amino-4methyl coumarin (Bachem # I1400) was added directly to the well, incubated for 10 minutes at room temperature, and fluorescence (380 excitation; 460 emission) was detected in a Biotek Cytation 3. Protease levels of lung homogenates incubated with 1 mM and 2 mM AEBSF were compared to that incubated with 0 mM AEBSF using one-way ANOVA and correlation between protease levels and recombination frequency was compared using two-tailed spearman in Graphpad 6.
For in vivo experiments, homogenized lungs were further clarified after plating on TSA plates via centrifugation at 10,000xg, 5min. Sera was separated from whole blood via centrifugation at 10,000xg, 5 min in sera-collection tubes. The clarified homogenates and sera were transferred to a black, 96-well plate and 50 μL of substrate t-Butyloxycarbonyl Phe-Ser-Arg 7-amino-4methyl coumarin was added directly to the well and fluorescence (380 excitation; 460 emission) was detected in a Biotek Cytation 3. Protease levels of all groups were compared pairwise for each tissue using unpaired t test and correlation between protease levels and recombination frequency was compared using two-tailed spearman in Graphpad 6.

[8] = target: T1, porcine trypsin (Sus scrofa, UniProt P00761); assay: Mass spectrometry of CSP cleavage by porcine trypsin; assay type: in vitro ADME; details: 30 min, room temperature
T1 construct: purchased Promega V5280
Procedure: Fig 1 Serine proteases cleave competence-stimulating peptide of S. pneumoniae. (A) Sequence of competence-stimulating peptide 1 (CSP1) and peptide 2 (CSP2). Red arrows indicate potential cleavage sites by trypsin-like serine proteases. (B) Mass spectrometry analysis of cleaved residues of CSP1 upon incubation with no trypsin (grey) or with porcine trypsin (black) for 30 minutes. (C) Mass spectrometry analysis of cleaved residues of CSP1 upon incubation with no trypsin (grey) or with human airway trypsin (HAT) (black) for 30 minutes. (D) Mass spectrometry analysis of cleaved residues of CSP2 upon incubation with no trypsin (grey) or with porcine trypsin (black) for 30 minutes. (E) Mass spectrometry analysis of cleaved residues of CSP2 upon incubation with no trypsin (grey) or with HAT (black) for 30 minutes. (B-E) The fraction of each peptide detected by mass spectrometry was calculated by dividing the area of the cleaved peptide by the total area of all peptides. In the case of two cleavage sites on the same peptide, the fraction was equally attributed to both cleavage sites. […]
CSPs was incubated with either porcine trypsin gold (Promega #V5280) or human airway trypsin-like protease (HAT; Bio-techne R&D #2695-SE-010) for thirty minutes, room temperature. […] The eluted peptides were ionized by electrospray ionization and detected by an inline mass spectrometer (Thermo Orbitrap Fusion). […]

[9] = test system: porcine trypsin gold; assay: porcine trypsin gold (Promega #V5280); details: room temperature, up to thirty minutes

T1 sequence (P00761 9-231): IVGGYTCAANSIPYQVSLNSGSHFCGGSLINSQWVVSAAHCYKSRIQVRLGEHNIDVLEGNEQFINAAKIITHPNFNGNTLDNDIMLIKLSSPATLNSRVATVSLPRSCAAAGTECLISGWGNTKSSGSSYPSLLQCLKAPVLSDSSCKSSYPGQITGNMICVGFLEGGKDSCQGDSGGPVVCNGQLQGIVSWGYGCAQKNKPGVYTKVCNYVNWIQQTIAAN

Cl.NCCc1ccc(S(=O)(=O)F)cc1 [AEBSF, 4-(2-Aminoethyl) benzenesulfonyl fluoride hydrochloride]
recombination frequency with CSP1 incubated with AEBSF alone ([1]; CSP1 in PBS with increasing AEBSF, no lung homogenate, D39x and D39x comC^- (S3 Fig)): did not increase
recombination frequency with CSP1 incubated with lung homogenates treated with AEBSF ([1]; mouse lung homogenate incubated 30 min with 1 or 2 mM AEBSF vs 0 mM): increased
ex vivo recombination frequency with homogenized lungs of mice treated in vivo [1]: restored
protease-caused reduction of recombination frequency when proteases were incubated with AEBSF [2]: abrogated
in vivo recombination frequency of D39 in lungs and blood [3]: higher frequency
PPT-caused reduction of DLA3 luminescence when PPT was pre-incubated with AEBSF [4]: abrogated
Growth of S. pneumoniae (OD620) [5]: not reduced
recombination frequency with CSP1 incubated with PPT or HAT pre-incubated with AEBSF ([6]; 0.1 mM AEBSF, protease pre-incubated 15 min): at a similar level as that of the no trypsin control
levels of serine proteases in the lung homogenates ([7]; lung homogenate incubated with 1 or 2 mM AEBSF, BOC substrate fluorescence): decreased
Protease levels in lungs and sera of treated mice ([7]; BOC substrate fluorescence): reduced

CC[C@H](C)[C@H](NC(=O)[C@H](Cc1ccccc1)NC(=O)[C@H](CC(=O)O)NC(=O)[C@H](CCCNC(=N)N)NC(=O)[C@H](Cc1ccccc1)NC(=O)[C@H](Cc1ccccc1)NC(=O)[C@H](CCCCN)NC(=O)[C@H](CO)NC(=O)[C@H](CC(C)C)NC(=O)[C@H](CCCNC(=N)N)NC(=O)[C@H](CCSC)NC(=O)[C@@H](N)CCC(=O)O)C(=O)N[C@@H](CC(C)C)C(=O)N[C@@H](CCC(N)=O)C(=O)N[C@@H](CCCNC(=N)N)C(=O)N[C@@H](CCCCN)C(=O)N[C@@H](CCCCN)C(=O)O [CSP1]
recombination frequency after incubation of CSP with mouse lung homogenate ([1]; mouse lung homogenate, ex vivo): reduced
HAT concentration to reduce the recombination frequency to below 5% of 0 trypsin [6]: 1 µg/mL
PPT concentration to reduce the recombination frequency to below 5% of 0 trypsin [6]: 0.05 µg/mL
preferential cleavage site, porcine trypsin [8]: R15 followed by K6 and R9

CC[C@H](C)[C@H](NC(=O)[C@H](Cc1ccccc1)NC(=O)[C@H](CC(=O)O)NC(=O)[C@H](CCCNC(=N)N)NC(=O)[C@H](Cc1ccccc1)NC(=O)[C@H](Cc1ccccc1)NC(=O)[C@H](Cc1c[nH]cn1)NC(=O)[C@H](CO)NC(=O)[C@H](CC(C)C)NC(=O)[C@H](CCCNC(=N)N)NC(=O)[C@H](CCSC)NC(=O)[C@@H](N)CCC(=O)O)C(=O)N[C@@H](CC(C)C)C(=O)N[C@@H](CCC(N)=O)C(=O)N[C@@H](CCCNC(=N)N)C(=O)N[C@@H](CCCCN)C(=O)N[C@@H](CCCCN)C(=O)O [K6H]
reduction of recombination frequency upon incubation of modified CSP with trypsin-like proteases [6]: similarly to that of unmodified CSP1

CC[C@H](C)[C@H](NC(=O)[C@H](Cc1ccccc1)NC(=O)[C@H](CC(=O)O)NC(=O)[C@H](Cc1c[nH]cn1)NC(=O)[C@H](Cc1ccccc1)NC(=O)[C@H](Cc1ccccc1)NC(=O)[C@H](CCCCN)NC(=O)[C@H](CO)NC(=O)[C@H](CC(C)C)NC(=O)[C@H](CCCNC(=N)N)NC(=O)[C@H](CCSC)NC(=O)[C@@H](N)CCC(=O)O)C(=O)N[C@@H](CC(C)C)C(=O)N[C@@H](CCC(N)=O)C(=O)N[C@@H](CCCNC(=N)N)C(=O)N[C@@H](CCCCN)C(=O)N[C@@H](CCCCN)C(=O)O [R9H]
HAT concentration to reduce recombination frequency below 5% of 0 trypsin: times less compared to unmodified CSP1 ([6]; CSP incubated with HAT): 2 times
HAT concentration to reduce the recombination frequency to below 5% of 0 trypsin [6]: 0.5 µg/mL
PPT concentration to reduce recombination frequency below 5% of 0 trypsin: times less compared to unmodified CSP1 ([6]; CSP incubated with PPT): 5 times
PPT concentration to reduce the recombination frequency to below 5% of 0 trypsin [6]: 0.01 µg/mL
reduction of recombination frequency upon incubation of modified CSP with trypsin-like proteases [6]: to a greater extent than the unmodified CSP1

CC[C@H](C)[C@H](NC(=O)[C@H](Cc1ccccc1)NC(=O)[C@H](CC(=O)O)NC(=O)[C@H](CCCNC(=N)N)NC(=O)[C@H](Cc1ccccc1)NC(=O)[C@H](Cc1ccccc1)NC(=O)[C@H](CCCCN)NC(=O)[C@H](CO)NC(=O)[C@H](CC(C)C)NC(=O)[C@H](CCCNC(=N)N)NC(=O)[C@H](CCSC)NC(=O)[C@@H](N)CCC(=O)O)C(=O)N[C@@H](CC(C)C)C(=O)N[C@@H](CCC(N)=O)C(=O)N[C@@H](Cc1c[nH]cn1)C(=O)N[C@@H](CCCCN)C(=O)N[C@@H](CCCCN)C(=O)O [R15H]
reduction of recombination frequency upon incubation of modified CSP with trypsin-like proteases [6]: similarly to that of unmodified CSP1

EMRISRIILDFLFLRKK
cleaved bond [9]: R6-I7 and E-M and D-F

poly (I:C)
ex vivo recombination frequency with homogenized lungs of mice treated in vivo [1]: reduced
in vivo recombination frequency of D39 in lungs and blood [3]: significant reduction
Protease levels in lungs and sera of treated mice ([7]; BOC substrate fluorescence): higher
protease levels in inflamed lungs, equated to recombinant HAT ([7]; recombinant HAT standard, 35000 RFU = 0.05 μg/mL, non-inflamed lungs 0.079 (±0.010)): 0.168 (±0.012) μg/mL
